The values that follow come from patent publication US20050209207A1, “Aerosol formulations containing esters of 3,17-dihydroxy oestratriene derivatives for pulmonary delivery” (priority 2002, published 2005).

Like-named read-outs stand apart in the source and are kept apart here. A value given as a limit tells only on which side of the number the result lay.

For data set [1] the following is noted: 0.1% w/v drug, HFA134a.
For data set [2] the following is noted: porous particles, Andersen cascade Impaction; cited from earlier work.
For data set [3] the following is noted: transdermal patches; cited from earlier work.
The conditions of data set [4]: intranasal aqueous solution with dimethyl-β-cyclodextrin, compared to the IV route; cited from earlier work.
For data set [5] the following is noted: cited from earlier work.
Data set [6] can be described thus: Andersen Cascade Impactor (ACI) deposition studies of HFA solution pMDIs. The class given is physicochemical. Here is the method:
All impaction studies were conducted with formulations contained in cut edge anodised aluminium cans fitted with 50 μl or 100 μl valves. The studies were carried out using an Andersen Cascade Impactor (ACI) fitted with a USP XXII metal throat entry port. The ACI was operated at a flow rate of 28.3±2 l min^−1. All solution HFA formulations were discharged into the ACI through an actuator having an orifice diameter of 0.22 mm. Deposition of the drug on each ACI plate was determined by high pressure liquid chromatography (HPLC). MMAD values and corresponding geometric standard deviations (GSD) were calculated from plots of the cumulative percentage undersize of drug collected on each ACI plate (probit scale), against the upper cut off diameter for each respective ACI plate (log 10 scale).

Where [7] appears, read: 0.1% w/v (50 μg/dose), 5% w/w ethanol, 0.1% w/w glycerol, HFA134a, ten shots.

As to `C[C@]12CC[C@@H]3c4ccc(OC(=O)c5ccccc5)cc4CC[C@H]3[C@@H]1CC[C@@H]2O` [Formulation 3-Benzoate], the Solubility result in data set [1] (13% w/w ethanol, no glycerol) was “Insoluble”.
Regarding 17β-Oestradiol, the fine particle fraction result in data set [2] is “approximately 33%”. Further, in data set [3], the “mean serum oestradiol levels” value is 70 to 90 pg/mL. Moreover, in data set [4], the bioavailability entry was “approximately 65%”. Further, the peak plasma concentration in data set [5] (sublingual, 0.25 mg) was 294 pg/mL; in data set [5] (sublingual, 0.5 mg), 245 pg/mL; in data set [5] (sublingual, 1.0 mg), 451 pg/mL. Moreover, the “time to peak plasma concentration” value in data set [5] (sublingual, 0.25, 0.5 and 1.0 mg) is at most 1 h. In addition, the 17β-oestradiol levels result in data set [5] (sublingual, after 6 hours) is on record as “less than 60 pg/ml”.
In the case of `CCCCCCC(=O)O[C@H]1CC[C@H]2[C@@H]3CCc4cc(O)ccc4[C@H]3CC[C@]12C` [Formulation 17-Enanthate, β-oestradiol enanthate], in data set [6] (setting [7]), the GSD amounted to 1.7, the MMAD came to 1.5 μm, the “fine particle dose (FPD)” value turned out to be 38.8 µg and the “fine particle fraction (FPF)” value is 78.5%.
Turning to `C[C@]12CC[C@@H]3c4ccc(O)cc4CC[C@H]3[C@@H]1CC[C@@H]2OC(=O)CCC1CCCC1` [Formulation 17-Cypionate], the Solubility entry in data set [1] (5% w/w ethanol, 0.1% w/w glycerol) is “Insoluble”.
In the case of “β-oestradiol-3,17-dipropionate [β-oestradiol 3,17-dipropionate]”, the MMAD in data set [6] (200 μg/dose (0.4% w/v), 0% w/w ethanol, HFA 134a) is on record as 0.90 μm; in data set [6] (200 μg/dose (0.4% w/v), 2% w/w ethanol, HFA 134a) it was 1.50 μm; in data set [6] (200 μg/dose (0.4% w/v), 5% w/w ethanol, HFA 134a), 1.50 μm; in data set [6] (500 μg/dose (1% w/v), 5% w/w ethanol, HFA 134a) it was 1.90 μm.
